Experimental data published in patent EP0496452A1, “Novel endothelin receptor antagonists isolated from microbispora” (MERCK & CO. INC., priority 1991, dated 1992).
*1 amine or outer side, *2 acyl side, *3 side chain or, on linkers, in order; H or OH if unused. Where a SMILES comes first, the peptide text is derived from it. Bridges are numbered along the chain shown (N, C = ends). [ ]: non-standard residue; d: D form. The star is where a group is joined. dPhg(3,5-diOH) = N[C@@H](C(=O)O)c1cc(O)cc(O)c1; X2 = O=C([C@@H](N[*:1])c1cc(O)cc(O)c1)[*:2]; d(aThr) = C[C@@H](O)[C@@H](N)C(=O)O; Pyrrole2CO = O=C(c1ccc[nH]1)*; X1 = O=C(c1ccc(Cl)[nH]1)*

Key:
[1] = Immunosuppressant activity (assay not described); conditions: may be attributable to assay differences
ET-A = molecular target: T1, ET-A (Rattus norvegicus, UniProt P26684); assay: 125I-ET-1 endothelin receptor binding assay, rat aorta membranes; conditions: 150 pM 125I-ET-1, 37° C
T1 construct: Membranes were prepared from rat hippocampus, and rat or cow aorta; from tissue; host or cells: rat aorta membranes
T1 sequence (P26684 21-426): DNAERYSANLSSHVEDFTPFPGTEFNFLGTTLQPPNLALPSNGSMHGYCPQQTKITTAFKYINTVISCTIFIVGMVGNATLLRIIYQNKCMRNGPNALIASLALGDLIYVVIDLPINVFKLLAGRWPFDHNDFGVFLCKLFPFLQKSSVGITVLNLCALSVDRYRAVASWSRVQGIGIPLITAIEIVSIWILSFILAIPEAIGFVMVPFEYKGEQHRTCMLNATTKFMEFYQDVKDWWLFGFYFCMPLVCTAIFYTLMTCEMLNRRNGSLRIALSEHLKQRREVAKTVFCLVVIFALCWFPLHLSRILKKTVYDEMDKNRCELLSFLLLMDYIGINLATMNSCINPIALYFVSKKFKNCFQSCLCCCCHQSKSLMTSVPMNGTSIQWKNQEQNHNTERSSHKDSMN
Protocol: (§1) The binding of cyclopeptides I, II and III to the endothelin receptor was determined in accordance with the assay described in detail immediately below. It is similar to the assay described in Ambar et al. (1989) Biochem. Biophys. Res. Commun. 158, 195-201; and Khoog et al. (1989) Febs Letters, 253, 199-202.
(§2) Endothelin-1 (ET-1) was purchased from Peptides International (Louisville, KY ). ¹²⁵I-ET-1 (2000 Ci/mMol) was purchased from Amersham (Arlington Heights, IL).
(§3) Membranes were prepared from rat hippocampus, and rat or cow aorta. Dissected tissue was homogenized twice for 30 seconds with a Brinkman Polytron [setting 10, Generator PTA 20 TS (Westbury, NY)] in ice cold 250 mM sucrose, 50 mM Tris-HCl pH 7.4 with 7 µg/ml pepstatin A and 0.5 µg/ml leupeptin. The crude particulate matter was removed by centrifugation at 750 x g for 10 min. The membranes were sedimented from the supernatant fraction by centrifugation at 48,000 g for 30 min. Membrane pellets were resuspended in the above buffer with protease inhibitors. Aliquots of these suspensions were stored at -70° C.
(§4) Binding studies with ¹²⁵I-ET-1 were conducted in 50 mM potassium phosphate pH 7.5 with 0.1% bovine serum albumin (BSA) using 12-well Shatron (Lier, Norway) cell harvester tube strips. ¹²⁵I-ET-1 concentrations were 25 pM for hippocampus, 150 pM for aorta. Samples were dissolved in dimethylsulfoxide (DMSO). Upon addition of the sample, the final DMSO concentration was 3%. Membranes were added last to start the binding reaction. The reaction mixture was incubated at 37° C for 30 or 60 minutes. Binding reactions were terminated using a Skatron cell harvester by filtration through glass fiber filter pads presoaked with 2% BSA. The samples on the pads were immediately washed with 150 mM NaCl 0.1% BSA. The pads were punched out and radioactivity was evaluated in a Beckman Gamma 5500 gamma counter (Fullerton, CA). Nonspecific binding was determined in the presence of 100 nM ET-1. The results of this binding assay are set out in the table of values below: TABLE VI

ET-B = molecular target: T2, ET-B (Rattus norvegicus, UniProt P21451); assay: 125I-ET-1 endothelin receptor binding assay, rat hippocampus membranes; conditions: 25 pM 125I-ET-1, 37° C
T2 construct: Membranes were prepared from rat hippocampus, and rat or cow aorta; from tissue; host or cells: rat hippocampus membranes
T2 sequence (P21451 27-442): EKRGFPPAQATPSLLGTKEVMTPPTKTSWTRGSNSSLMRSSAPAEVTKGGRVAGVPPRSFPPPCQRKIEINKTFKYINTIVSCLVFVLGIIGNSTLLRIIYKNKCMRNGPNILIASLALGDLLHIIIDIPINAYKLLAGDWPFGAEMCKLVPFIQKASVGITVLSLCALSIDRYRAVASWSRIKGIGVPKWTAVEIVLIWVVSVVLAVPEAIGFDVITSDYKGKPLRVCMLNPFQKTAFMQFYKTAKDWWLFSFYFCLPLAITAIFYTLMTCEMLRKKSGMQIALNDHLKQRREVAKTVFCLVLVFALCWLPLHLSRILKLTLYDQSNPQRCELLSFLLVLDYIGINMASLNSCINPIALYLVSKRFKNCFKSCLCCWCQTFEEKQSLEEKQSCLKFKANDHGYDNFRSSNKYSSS
Protocol: as §1, §2, §3, §4

| Compound | immunosuppressant activity [1] | Ki (ET-A) [nM] | Ki (ET-B) [nM] |
| --- | --- | --- | --- |
| C[C@H]1NC(=O)[C@@H](Cc2ccccc2)NC(=O)[C@H](NC(=O)[C@H](Cc2ccccc2)NC(=O)c2ccc(Cl)[nH]2)[C@@H](C)OC(=O)[C@@H](c2cc(O)cc(O)c2)NC(=O)[C@@H](c2cc(O)cc(O)c2)NC1=O [Compound III] (X1-F[d(aThr)][dF][dA][dPhg(3,5-diOH)][dPhg(3,5-diOH)]; ester 2-C) | no significant immunosuppressant activity | 200 | 500 |
| C[C@H]1NC(=O)[C@@H](Cc2ccccc2)NC(=O)[C@H](NC(=O)[C@H](Cc2ccccc2)NC(=O)c2ccc(Cl)[nH]2)[C@@H](C)OC(=O)[C@H](c2cc(O)cc(O)c2)NC(=O)[C@@H](c2cc(O)cc(O)c2)NC1=O [Compound II] (X1-F[d(aThr)][dF][dA][dPhg(3,5-diOH)][X2]; ester 2-C) | no significant immunosuppressant activity | 3000 | 3000 |
| C[C@H]1NC(=O)[C@@H](Cc2ccccc2)NC(=O)[C@H](NC(=O)[C@H](Cc2ccccc2)NC(=O)c2ccc[nH]2)[C@@H](C)OC(=O)[C@@H](c2cc(O)cc(O)c2)NC(=O)[C@@H](c2cc(O)cc(O)c2)NC1=O [Compound I] (Pyrrole2CO-F[d(aThr)][dF][dA][dPhg(3,5-diOH)][dPhg(3,5-diOH)]; ester 2-C) | – | 100 | 200 |
